The target in assay [1] is human glucagon receptor (GCGR) (Homo sapiens (Human), UniProt P47871). The experiment in a line: Inhibition of 125I-glucagon binding to membranes from HEK293 cells expressing the human glucagon receptor. The note with it: membranes of hGluc-1 HEK cells, 125I-glucagon 0.3 nM, 2 hours room temperature; IC50 converted to Ki; average if tested more than once. Summed up:
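Compound displacement of ¹²⁵I-glucagon (0.3 nM) was run for 2 h at room temperature in 50 mM HEPES pH 7.4 with 5 mM MgCl2, 1 mM CaCl2 and 0.2% BSA, using 6 μg/well membranes from stably transfected hGCGR HEK293 cells. Filter-bound counts gave IC50s, expressed as Ki.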

A further assay concerns the target human GCGR (Homo sapiens (Human), UniProt P47871). Put plainly: Cellular functional assay, cAMP readout (glucagon-stimulated cAMP in HEK293 cells expressing human GCGR). Format: cell-based. As to conditions: hGluc-1 HEK cells, LANCE TR-FRET, IC50 converted to Ki, average if tested more than once. The method, boiled down:
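HEK293 cells stably transfected with full-length human GCGR were exposed to compound for 30 min before a 5-min challenge with […] (final) glucagon. Readout was TR-FRET (LANCE) cAMP versus standard curve; IC50s fitted by non-linear regression and converted to Ki values.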

Drawing on patent publication US8748624B2, “Picolinamido-propanoic acid derivatives useful as glucagon receptor antagonists” (Janssen Pharmaceutica NV, priority 2011, dated 2014), this text covers Ki for 20 compounds.

pKi: −log10 of the molar value.

Chain of human glucagon receptor (GCGR) (P47871 26-477): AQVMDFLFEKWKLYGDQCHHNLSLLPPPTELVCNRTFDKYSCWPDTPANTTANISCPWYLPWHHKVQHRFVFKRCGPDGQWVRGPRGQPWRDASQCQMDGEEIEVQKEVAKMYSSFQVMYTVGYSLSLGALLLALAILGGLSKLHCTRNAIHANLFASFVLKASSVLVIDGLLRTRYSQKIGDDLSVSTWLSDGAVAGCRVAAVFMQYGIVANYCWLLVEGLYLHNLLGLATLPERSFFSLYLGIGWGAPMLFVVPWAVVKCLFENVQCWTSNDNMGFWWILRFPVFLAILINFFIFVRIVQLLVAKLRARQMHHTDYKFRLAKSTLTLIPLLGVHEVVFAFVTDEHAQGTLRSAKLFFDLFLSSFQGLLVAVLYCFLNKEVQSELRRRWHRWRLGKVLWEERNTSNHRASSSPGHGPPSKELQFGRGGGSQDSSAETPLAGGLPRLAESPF
Chain of human GCGR (P47871 26-477): as above

What is called pKi is the Ki on a negative log10 scale, so that one unit is a factor of ten. Higher therefore signals a small Ki. As to `CC(Nc1ccc(-c2ccc(F)cc2)cc1)c1ccc(Cl)cc1-c1ccc(C(=O)NCCC(=O)O)nc1` (stereo not shown) [Compound 155, 3-(5-(5-chloro-2-(1-((4′-fluoro-[1,1′-biphenyl]-4-yl)amino)ethyl)phenyl)picolinamido)propanoic acid], the pKi is 6.63 in assay [1] and 5.66 on human GCGR.

As for `O=C(O)CCNC(=O)c1ccc(-c2cc(C(F)(F)F)ccc2CNc2ccc(-c3ccc(F)c(C(F)(F)F)c3)c(Cl)c2)cn1` [Compound 31, 3-(5-(2-(((2-chloro-4′-fluoro-3′-(trifluoromethyl)-[1,1′-biphenyl]-4-yl)amino)methyl)-5-(trifluoromethyl)phenyl)picolinamido)propanoic acid], the results for the pKi (in assay [1]; on human GCGR) were 7.66 and 7.71, respectively.

Regarding `Cc1ccc(-c2ccc(NCc3ccc(Cl)cc3-c3ccc(C(=O)NCCC(=O)O)nc3)cc2Cl)cc1` [Compound 172, 3-(5-(5-chloro-2-(((2-chloro-4′-methyl-[1,1′-biphenyl]-4-yl)amino)methyl)phenyl)picolinamido)propanoic acid], the pKi in assay [1] is 7.57; at human GCGR it was 7.16.

`O=C(O)CCNC(=O)c1ccc(-c2cc(Cl)ccc2CNc2ccc(-c3ccccc3F)cc2)cn1` [Compound 133, 3-(5-(5-chloro-2-(((2′-fluoro-[1,1′-biphenyl]-4-yl)amino)methyl)phenyl)picolinamido)propanoic acid]: the negative logarithm of the Ki (pKi) in assay [1] was 6.98; on human GCGR it was 5.70.

Consider `O=C(O)CCNC(=O)c1ccc(-c2cc(Cl)ccc2CNc2ccc(-c3ccc(Cl)cc3Cl)c(F)c2)cn1` [Compound 92, 3-(5-(5-chloro-2-(((2′,4′-dichloro-2-fluoro-[1,1′-biphenyl]-4-yl)amino)methyl)phenyl)picolinamido)propanoic acid], for which the pKi in assay [1] is 7.71; at human GCGR, 6.94.

For the compound `COc1ccc(-c2ccc(NCc3ccc(Cl)cc3-c3ccc(C(=O)NCCC(=O)O)nc3)cc2)c(Cl)c1` [Compound 143, 3-(5-(5-chloro-2-(((2′-chloro-4′-methoxy-[1,1′-biphenyl]-4-yl)amino)methyl)phenyl)picolinamido)propanoic acid], the negative logarithm of the Ki (pKi) in assay [1] was 7.55; at human GCGR, 6.97.

In the case of `O=C(O)CCNC(=O)c1ccc(-c2cc(C(F)(F)F)cc(C(F)(F)F)c2CNc2ccc(-c3ccc(Cl)cc3)cc2)cn1` [Compound 71, 3-(5-(2-(((4′-chloro-[1,1′-biphenyl]-4-yl)amino)methyl)-3,5-bis(trifluoromethyl)phenyl)picolinamido)propanoic acid], the pKi in assay [1] is 7.50; on human GCGR, 7.76.

Take `O=C(O)CCNC(=O)c1ccc(-c2cc(Cl)ccc2CNc2ccc(-c3cccc(C(F)(F)F)c3)c(Cl)c2)cn1` [Compound 170, 3-(5-(5-chloro-2-(((2-chloro-3′-(trifluoromethyl)-[1,1′-biphenyl]-4-yl)amino)methyl)phenyl)picolinamido)propanoic acid]: the figures for the negative-log Ki (pKi) (in assay [1]; at human GCGR) were 7.68 and 7.18, respectively.

Consider `Cc1cc(Cl)ccc1-c1ccc(NCc2ccc(C(F)(F)F)cc2-c2ccc(C(=O)NCCC(=O)O)nc2)cc1` [Compound 22, 3-(5-(2-(((4′-chloro-2′-methyl-[1,1′-biphenyl]-4-yl)amino)methyl)-5-(trifluoromethyl)phenyl)picolinamido)propanoic acid], for which the values for the negative-log Ki (pKi) (in assay [1]; at human GCGR) were 7.60 and 7.65, respectively.

In the case of `Cc1ccc(CNc2ccc(-c3ccc(Cl)cc3)cc2)c(-c2ccc(C(=O)NCCC(=O)O)nc2)c1` [Compound 68, 3-(5-(2-(((4′-chloro-[1,1′-biphenyl]-4-yl)amino)methyl)-5-methylphenyl)picolinamido)propanoic acid], the results for the negative logarithm of the Ki (pKi) (in assay [1]; on human GCGR) were 7.40 and 6.82, respectively.

With `O=C(O)CCNC(=O)c1ccc(-c2cc(Cl)ccc2C(=O)Nc2ccc(-c3ccc(F)cc3)cc2)cn1` [Compound 20, 3-(5-(5-chloro-2-((4′-fluoro-[1,1′-biphenyl]-4-yl)carbamoyl)phenyl)picolinamido)propanoic acid], the values for the pKi (in assay [1]; on human GCGR) were 7.21 and 6.80, respectively.

With `O=C(O)CCNC(=O)c1ccc(-c2cc(C(F)(F)F)ccc2CNc2ccc(-c3cccc(C(F)(F)F)c3Cl)c(Cl)c2)cn1` [Compound 38, 3-(5-(2-(((2,2′-dichloro-3′-(trifluoromethyl)-[1,1′-biphenyl]-4-yl)amino)methyl)-5-(trifluoromethyl)phenyl)picolinamido)propanoic acid], the negative logarithm of the Ki (pKi) (in assay [1]; at human GCGR) was 7.65 in each case.

Take `O=C(O)CCNC(=O)c1ccc(-c2cc(Cl)ccc2C(=O)Nc2ccc(-c3ccc(Cl)cc3Cl)cc2)cn1` [Compound 19, 3-(5-(5-chloro-2-((2′,4′-dichloro-[1,1′-biphenyl]-4-yl)carbamoyl)phenyl)picolinamido)propanoic acid]: the pKi in assay [1] is 7.40; at human GCGR, 7.34.

As to `O=C(O)CCNC(=O)c1ccc(-c2cc(Cl)ccc2CNc2ccc(-c3ccccc3OC(F)(F)F)cc2)cn1` [Compound 132, 3-(5-(5-chloro-2-(((2′-(trifluoromethoxy)-[1,1′-biphenyl]-4-yl)amino)methyl)phenyl)picolinamido)propanoic acid], the pKi was 6.91 in assay [1] and 5.71 at human GCGR.

`CC(C)(C)c1ccc(-c2ccc(NCc3ccc(Cl)cc3-c3ccc(C(=O)NCCC(=O)O)nc3)cc2)cc1` [Compound 59, 3-(5-(2-(((4′-(tert-butyl)-[1,1′-biphenyl]-4-yl)amino)methyl)-5-chlorophenyl)picolinamido)propanoic acid]: the figures for the pKi (in assay [1]; on human GCGR) were 7.14 and 6.50, respectively.

For `O=C(O)CCNC(=O)c1ccc(-c2cc(F)c(F)cc2C(=O)Nc2ccc(-c3ccc(Cl)cc3)cc2)cn1` [Compound 97, 3-(5-(2-((4′-chloro-[1,1′-biphenyl]-4-yl)carbamoyl)-4,5-difluorophenyl)picolinamido)propanoic acid], the negative-log Ki (pKi) was 7.24 in assay [1] and 6.65 at human GCGR.

`N#Cc1cc(NCc2cc(F)c(F)cc2-c2ccc(C(=O)NCCC(=O)O)nc2)ccc1-c1ccc(Cl)c(C(F)(F)F)c1` [Compound 113, 3-(5-(2-(((4′-chloro-2-cyano-3′-(trifluoromethyl)-[1,1′-biphenyl]-4-yl)amino)methyl)-4,5-difluorophenyl)picolinamido)propanoic acid]: the pKi is 7.23 in assay [1] and 6.19 at human GCGR.

Regarding `O=C(O)CCNC(=O)c1ccc(-c2cc(F)c(F)cc2CNc2ccc(-c3ccc(Cl)c(C(F)(F)F)c3)c(Cl)c2)cn1` [Compound 106, 3-(5-(2-(((2,4′-dichloro-3′-(trifluoromethyl)-[1,1′-biphenyl]-4-yl)amino)methyl)-4,5-difluorophenyl)picolinamido)propanoic acid], the pKi in assay [1] was 7.58; at human GCGR, 6.49.

`O=C(O)CCNC(=O)c1ccc(-c2ccc(Cl)cc2CNc2ccc(-c3ccc(Cl)cc3Cl)cc2)cn1` [Compound 5, 3-(5-(4-chloro-2-(((2′,4′-dichloro-[1,1′-biphenyl]-4-yl)amino)methyl)phenyl)picolinamido)propanoic acid]: the negative-log Ki (pKi) was 7.17 in assay [1] and 6.74 at human GCGR.

Take `O=C(O)CCNC(=O)c1ccc(-c2ccccc2CNc2ccc(-c3ccc(Cl)c(Cl)c3)cc2)cn1` [Compound 8, 3-(5-(2-(((3′,4′-dichloro-[1,1′-biphenyl]-4-yl)amino)methyl)phenyl)picolinamido)propanoic acid]: the negative-log Ki (pKi) was 7.03 in assay [1] and 6.25 on human GCGR.
